In patent publication US10202349B2, “Asymmetric bis-acridines with antitumour activity and their uses” (POLITECHNIKA GDAŃSKA, priority 2015, dated 2019):
pEC50: −log10 of the molar value.

What was measured:
H 460 = assay: Anti-neoplasmic activity against xenograft in hairless mice; assay type: in vivo; conditions: series 4, i.v., single 15 mg/kg, total 30 mg/kg, day 14
In short: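 Female 5-week nude mice (Crl:Nu-Foxn1nu) implanted s.c. with 5×10^6 tumour cells, dosed from ~100–200 mm^3 tumours at three doses, i.v. (some series i.p.) twice weekly (thrice for fast tumours) for 4 weeks. Calipered volumes gave TGI% = 100 − (ΔVT/ΔVC × 100), scored after dosing ended.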

DU 145 = assay: as above; assay type: in vivo; conditions: series 2, i.p., single 4 mg/kg, total 24 mg/kg, day 35
In short: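 Human tumour cells (5×10^6 per mouse) implanted subcutaneously in 5-week female nude mice; randomised at ~100–200 mm^3 tumour volume. Dosing i.v. or i.p., twice weekly (thrice for fast growers) over 4 weeks, three dose levels. Growth inhibition computed from volume change versus controls.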

H T29 = assay: as above; assay type: in vivo; conditions: series 3, i.v., total 24 mg/kg, day 20
In short: (§1)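 Female 5-week Crl:Nu-Foxn1nu hairless mice received 5×10^6 tumour cells s.c.; therapy began at ~100 or 200 mm^3. Bis-acridines were given i.v. (some series i.p.) twice weekly for 4 weeks, at three doses. TGI [%]=100−(ΔVT/ΔVC×100) from caliper-derived tumour volumes.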

Mia Pa Ca 2 = assay: as above; assay type: in vivo; conditions: series 12, i.p., single 4 mg/kg, total 32 mg/kg, day 26
In short: as §1

HT-29 = assay: Cytotoxic activity in vitro, SRB; assay type: cell-based, human
In short: (§2)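 Cytotoxicity was measured with the sulforhodamine B (SRB) assay following the US National Cancer Institute protocol. EC50 is the compound concentration that inhibits proliferation of the human tumour cells by 50% relative to untreated control.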

MDA-MB-231 = assay: Cytotoxic activity in vitro, SRB; assay type: cell-based, human
In short: as §2

UM-UC-3 = assay: Cytotoxic activity in vitro, SRB; assay type: cell-based, human
In short: as §2

PANC-1 = assay: Cytotoxic activity in vitro, SRB; assay type: cell-based, human
In short: as §2

MCF-7 = assay: Cytotoxic activity in vitro, SRB; assay type: cell-based, human
In short: as §2

HCT-116 = assay: Cytotoxic activity in vitro, SRB; assay type: cell-based, human
In short: as §2

MiaPaCa-2 = assay: Cytotoxic activity in vitro, SRB; assay type: cell-based, human
In short: as §2

AsPC-1 = assay: Cytotoxic activity in vitro, SRB; assay type: cell-based, human
In short: as §2

PC-3 = assay: Cytotoxic activity in vitro, SRB; assay type: cell-based, human
In short: as §2

H-460 = assay: Cytotoxic activity in vitro, SRB; assay type: cell-based, human
In short: as §2

DU-145 = assay: Cytotoxic activity in vitro, SRB; assay type: cell-based, human
In short: as §2

## O=c1c2cc(O)ccc2[nH]c2c([N+](=O)[O-])ccc(NCCCN3CCN(CCCNc4c5ccccc5nc5cccc([N+](=O)[O-])c45)CC3)c12 [C-1941]
H 460
  TGI [%] [100 − (ΔVT/ΔVC × 100]: 24%
DU 145
  TGI [%] [100 − (ΔVT/ΔVC × 100]: 52%
H T29; single 3 mg/kg
  TGI [%] [100 − (ΔVT/ΔVC × 100]: 26%
H T29; single 4 mg/kg
  TGI [%] [100 − (ΔVT/ΔVC × 100]: 35%
Mia Pa Ca 2
  TGI [%] [100 − (ΔVT/ΔVC × 100]: 30%
HT-29
  pEC50: 7.42
MDA-MB-231
  pEC50: 7.92
UM-UC-3
  pEC50: 7.48
PANC-1
  pEC50: 7.37
MCF-7
  pEC50: 7.21
HCT-116
  pEC50: 7.96
MiaPaCa-2
  pEC50: 7.92
AsPC-1
  pEC50: 6.68
PC-3
  pEC50: 7.51
H-460
  pEC50: 7.70
DU-145
  pEC50: 7.70
